Experimental data as given in patent publication US6689773B2, “Uracil substituted phenyl sulfamoyl carboxamides” (BASF Aktiengesellschaft, priority 2000, dated 2004).

Experiments:
Format in all cases: in vivo
[1] = system: DIGSA, Crabgrass, (Hairy) L, Digitaria sanguinalis, (L)Scop; test: Postemergence herbicidal evaluation (Example 147); details: rating scale 0-9, two to three weeks after treatment
Method: (§1) Seedling plants were grown in jiffy flats for about two weeks. The test compounds were dispersed in 80/20 acetone/water mixtures containing 1.0% SUN-IT®II, a methylated seed oil, in sufficient quantities to provide the equivalent of about 0.016 to 0.032 kg per hectare of active compound when applied to the plants through a spray nozzle operating at 40 psi for a predetermined time. After spraying, the plants were placed on greenhouse benches and were cared for in accordance with conventional greenhouse procedures. Approximately two to three weeks after treatment, the seedling plants were examined and rated according to the rating scale (0-9) set forth below. Where more than one test is involved for a given compound, the data are averaged. [table] The scale is based upon a visual observation of plant stand, vigor, malformation, size, chlorosis and overall plant appearance as compared with a control. Plant species employed in these evaluations are reported by header abbreviation, common name and scientific name. [table]

[2] = system: AMBEL, Ragweed, Common, Ambrosia artemiisifolia, L.; test: Postemergence herbicidal evaluation (Example 147); details: rating scale 0-9, two to three weeks after treatment
Method: as §1

[3] = system: ALOMY, Blackgrass, Alopecurus myosuroides; test: Postemergence herbicidal evaluation (Example 147); details: rating scale 0-9, two to three weeks after treatment
Method: as §1

[4] = system: ZEAMX, Field corn, Zea mays L.; test: Postemergence herbicidal evaluation (Example 147); details: rating scale 0-9, two to three weeks after treatment
Method: as §1

[5] = system: GLXMA, Soybean, Glycine max, (L.) Merr.; test: Postemergence herbicidal evaluation (Example 147); details: rating scale 0-9, two to three weeks after treatment
Method: as §1

[6] = system: ECHCG, Barnyardgrass, Echinochloa crusgalli, (L.)Beau; test: Postemergence herbicidal evaluation (Example 147); details: rating scale 0-9, two to three weeks after treatment
Method: as §1

[7] = system: IPOHE, Morningglory, Ivyleaf, Ipomoea hederacea, (L)Jacq.; test: Postemergence herbicidal evaluation (Example 147); details: rating scale 0-9, two to three weeks after treatment
Method: as §1

[8] = system: ABUTH, Velvetleaf, Abutilon theophrasti, Medic.; test: Postemergence herbicidal evaluation (Example 147); details: rating scale 0-9, two to three weeks after treatment
Method: as §1

[9] = system: CHEAL, Lambsquarters, Chenopodium album, L. Common; test: Postemergence herbicidal evaluation (Example 147); details: rating scale 0-9, two to three weeks after treatment
Method: as §1

[10] = system: TRZAW, Winter wheat, Tritium Aestivum, L. (Winter); test: Postemergence herbicidal evaluation (Example 147); details: rating scale 0-9, two to three weeks after treatment
Method: as §1

[11] = system: SETVI, Green foxtail, Setaria viridis, (L.)Beau; test: Postemergence herbicidal evaluation (Example 147); details: rating scale 0-9, two to three weeks after treatment
Method: as §1

[12] = system: XANST, Cocklebur, Xanthium strumariam; test: Preemergence herbicidal evaluation (Example 148); details: rating scale 0-9, two to four weeks after treatment
Method: (§2) The scale is based upon a visual observation of plant stand, vigor, malformation, size, chlorosis and overall plant appearance as compared with a control.
(§3) The herbicidal activity of the compounds of the present invention was evaluated by the following tests wherein the seeds of a variety of monocotyledonous and dicotyledonous plants were separately mixed with potting soil and planted on top of approximately one inch of soil in separate pint cups. After planting, the cups were sprayed with the selected aqueous acetone solution containing test compound in sufficient quantity to provide the equivalent of about 0.125 to 0.250 kg per hectare of test compound per cup. The treated cups were then placed on greenhouse benches, watered and cared for in accordance with conventional greenhouse procedures. From two to four weeks after treatment, the tests were terminated and each cup was examined and rated according to the rating system provided in Example 94. When more than one test was performed for a given compound, the data were averaged.

[13] = system: DIGSA, Crabgrass, (Hairy) L, Digitaria sanguinalis, (L)Scop; test: Preemergence herbicidal evaluation (Example 148); details: rating scale 0-9, two to four weeks after treatment
Method: as §2, §3

[14] = system: AMBEL, Ragweed, Common, Ambrosia artemiisifolia, L.; test: Preemergence herbicidal evaluation (Example 148); details: rating scale 0-9, two to four weeks after treatment
Method: as §2, §3

[15] = system: ALOMY, Blackgrass, Alopecurus myosuroides; test: Preemergence herbicidal evaluation (Example 148); details: rating scale 0-9, two to four weeks after treatment
Method: as §2, §3

[16] = system: ZEAMX, Field corn, Zea mays L.; test: Preemergence herbicidal evaluation (Example 148); details: rating scale 0-9, two to four weeks after treatment
Method: as §2, §3

[17] = system: GLXMA, Soybean, Glycine max, (L.) Merr.; test: Preemergence herbicidal evaluation (Example 148); details: rating scale 0-9, two to four weeks after treatment
Method: as §2, §3

[18] = system: ECHCG, Barnyardgrass, Echinochloa crusgalli, (L.)Beau; test: Preemergence herbicidal evaluation (Example 148); details: rating scale 0-9, two to four weeks after treatment
Method: as §2, §3

[19] = system: IPOHE, Morningglory, Ivyleaf, Ipomoea hederacea, (L)Jacq.; test: Preemergence herbicidal evaluation (Example 148); details: rating scale 0-9, two to four weeks after treatment
Method: as §2, §3

[20] = system: ABUTH, Velvetleaf, Abutilon theophrasti, Medic.; test: Preemergence herbicidal evaluation (Example 148); details: rating scale 0-9, two to four weeks after treatment
Method: as §2, §3

[21] = system: CHEAL, Lambsquarters, Chenopodium album, L. Common; test: Preemergence herbicidal evaluation (Example 148); details: rating scale 0-9, two to four weeks after treatment
Method: as §2, §3

[22] = system: TRZAW, Winter wheat, Tritium Aestivum, L. (Winter); test: Preemergence herbicidal evaluation (Example 148); details: rating scale 0-9, two to four weeks after treatment
Method: as §2, §3

[23] = system: SETVI, Green foxtail, Setaria viridis, (L.)Beau; test: Preemergence herbicidal evaluation (Example 148); details: rating scale 0-9, two to four weeks after treatment
Method: as §2, §3

CC(C)CCNS(=O)(=O)NC(=O)c1cc(-n2c(=O)cc(C(F)(F)F)n(C)c2=O)c(F)cc1Cl [Example 72]
Postemergence herbicidal rating DIGSA ([1]; rate 0.016 kg/ha): 4.0 | Postemergence herbicidal rating DIGSA ([1]; rate 0.032 kg/ha): 4.0 | Postemergence herbicidal rating AMBEL ([2]; rate 0.016 kg/ha): 9.0 | Postemergence herbicidal rating AMBEL ([2]; rate 0.032 kg/ha): 9.0 | Postemergence herbicidal rating ALMOY ([3]; rate 0.016 kg/ha): 1.0 | Postemergence herbicidal rating ALMOY ([3]; rate 0.032 kg/ha): 2.0 | Postemergence herbicidal rating ZEAMX ([4]; rate 0.016 kg/ha): 7.0 | Postemergence herbicidal rating ZEAMX ([4]; rate 0.032 kg/ha): 7.0 | Postemergence herbicidal rating GLXMA ([5]; rate 0.016 kg/ha): 8.5 | Postemergence herbicidal rating GLXMA ([5]; rate 0.032 kg/ha): 8.5 | Postemergence herbicidal rating ECHCG ([6]; rate 0.016 kg/ha): 6.0 | Postemergence herbicidal rating ECHCG ([6]; rate 0.032 kg/ha): 8.0 | Postemergence herbicidal rating IPOHE ([7]; rate 0.016 kg/ha): 9.0 | Postemergence herbicidal rating IPOHE ([7]; rate 0.032 kg/ha): 9.0 | Postemergence herbicidal rating ABUTH ([8]; rate 0.016 kg/ha): 9.0 | Postemergence herbicidal rating ABUTH ([8]; rate 0.032 kg/ha): 9.0 | Postemergence herbicidal rating CHEAL ([9]; rate 0.016 kg/ha): 8.0 | Postemergence herbicidal rating CHEAL ([9]; rate 0.032 kg/ha): 8.0 | Postemergence herbicidal rating TRZAW ([10]; rate 0.016 kg/ha): 5.5 | Postemergence herbicidal rating TRZAW ([10]; rate 0.032 kg/ha): 6.5 | Postemergence herbicidal rating SETVI ([11]; rate 0.016 kg/ha): 5.0 | Postemergence herbicidal rating SETVI ([11]; rate 0.032 kg/ha): 6.0 | Preemergence herbicidal rating XANST ([12]; rate 0.125 kg/ha): 7.0 | Preemergence herbicidal rating XANST ([12]; rate 0.25 kg/ha): 9.0 | Preemergence herbicidal rating DIGSA ([13]; rate 0.125 kg/ha): 2.0 | Preemergence herbicidal rating DIGSA ([13]; rate 0.25 kg/ha): 7.0 | Preemergence herbicidal rating AMBEL ([14]; rate 0.125 kg/ha): 9.0 | Preemergence herbicidal rating AMBEL ([14]; rate 0.25 kg/ha): 9.0 | Preemergence herbicidal rating ALMOY ([15]; rate 0.125 kg/ha): 1.0 | Preemergence herbicidal rating ALMOY ([15]; rate 0.25 kg/ha): 2.0 | Preemergence herbicidal rating ZEAMX ([16]; rate 0.125 kg/ha): 0.0 | Preemergence herbicidal rating ZEAMX ([16]; rate 0.25 kg/ha): 0.0 | Preemergence herbicidal rating GLXMA ([17]; rate 0.125 kg/ha): 8.0 | Preemergence herbicidal rating GLXMA ([17]; rate 0.25 kg/ha): 9.0 | Preemergence herbicidal rating ECHCG ([18]; rate 0.125 kg/ha): 7.0 | Preemergence herbicidal rating ECHCG ([18]; rate 0.25 kg/ha): 6.0 | Preemergence herbicidal rating IPOHE ([19]; rate 0.125 kg/ha): 9.0 | Preemergence herbicidal rating IPOHE ([19]; rate 0.25 kg/ha): 9.0 | Preemergence herbicidal rating ABUTH ([20]; rate 0.125 kg/ha): 9.0 | Preemergence herbicidal rating ABUTH ([20]; rate 0.25 kg/ha): 9.0 | Preemergence herbicidal rating CHEAL ([21]; rate 0.125 kg/ha): 9.0 | Preemergence herbicidal rating CHEAL ([21]; rate 0.25 kg/ha): 9.0 | Preemergence herbicidal rating TRZAW ([22]; rate 0.125 kg/ha): 0.0 | Preemergence herbicidal rating TRZAW ([22]; rate 0.25 kg/ha): 1.0 | Preemergence herbicidal rating SETVI ([23]; rate 0.125 kg/ha): 4.0 | Preemergence herbicidal rating SETVI ([23]; rate 0.25 kg/ha): 8.0

COc1cccc(CN(C)S(=O)(=O)NC(=O)c2cc(-n3c(=O)cc(C(F)(F)F)n(C)c3=O)c(F)cc2Cl)c1 [Example 70]
Postemergence herbicidal rating DIGSA ([1]; rate 0.016 kg/ha): 2.0 | Postemergence herbicidal rating DIGSA ([1]; rate 0.032 kg/ha): 3.0 | Postemergence herbicidal rating AMBEL ([2]; rate 0.016 kg/ha): 5.0 | Postemergence herbicidal rating AMBEL ([2]; rate 0.032 kg/ha): 7.0 | Postemergence herbicidal rating ALMOY ([3]; rate 0.016 kg/ha): 1.0 | Postemergence herbicidal rating ALMOY ([3]; rate 0.032 kg/ha): 1.0 | Postemergence herbicidal rating ZEAMX ([4]; rate 0.016 kg/ha): 7.0 | Postemergence herbicidal rating ZEAMX ([4]; rate 0.032 kg/ha): 7.0 | Postemergence herbicidal rating GLXMA ([5]; rate 0.016 kg/ha): 6.5 | Postemergence herbicidal rating GLXMA ([5]; rate 0.032 kg/ha): 7.5 | Postemergence herbicidal rating ECHCG ([6]; rate 0.016 kg/ha): 4.0 | Postemergence herbicidal rating ECHCG ([6]; rate 0.032 kg/ha): 8.0 | Postemergence herbicidal rating IPOHE ([7]; rate 0.016 kg/ha): 9.0 | Postemergence herbicidal rating IPOHE ([7]; rate 0.032 kg/ha): 9.0 | Postemergence herbicidal rating ABUTH ([8]; rate 0.016 kg/ha): 9.0 | Postemergence herbicidal rating ABUTH ([8]; rate 0.032 kg/ha): 9.0 | Postemergence herbicidal rating CHEAL ([9]; rate 0.016 kg/ha): 6.0 | Postemergence herbicidal rating CHEAL ([9]; rate 0.032 kg/ha): 7.0 | Postemergence herbicidal rating TRZAW ([10]; rate 0.016 kg/ha): 4.5 | Postemergence herbicidal rating TRZAW ([10]; rate 0.032 kg/ha): 5.0 | Postemergence herbicidal rating SETVI ([11]; rate 0.016 kg/ha): 4.0 | Postemergence herbicidal rating SETVI ([11]; rate 0.032 kg/ha): 5.0 | Preemergence herbicidal rating XANST ([12]; rate 0.125 kg/ha): 8.0 | Preemergence herbicidal rating XANST ([12]; rate 0.25 kg/ha): 9.0 | Preemergence herbicidal rating DIGSA ([13]; rate 0.125 kg/ha): 2.0 | Preemergence herbicidal rating DIGSA ([13]; rate 0.25 kg/ha): 5.0 | Preemergence herbicidal rating AMBEL ([14]; rate 0.125 kg/ha): 9.0 | Preemergence herbicidal rating AMBEL ([14]; rate 0.25 kg/ha): 9.0 | Preemergence herbicidal rating ALMOY ([15]; rate 0.125 kg/ha): 0.0 | Preemergence herbicidal rating ALMOY ([15]; rate 0.25 kg/ha): 0.0 | Preemergence herbicidal rating ZEAMX ([16]; rate 0.125 kg/ha): 0.0 | Preemergence herbicidal rating ZEAMX ([16]; rate 0.25 kg/ha): 0.0 | Preemergence herbicidal rating GLXMA ([17]; rate 0.125 kg/ha): 1.0 | Preemergence herbicidal rating GLXMA ([17]; rate 0.25 kg/ha): 3.0 | Preemergence herbicidal rating ECHCG ([18]; rate 0.125 kg/ha): 2.0 | Preemergence herbicidal rating ECHCG ([18]; rate 0.25 kg/ha): 7.0 | Preemergence herbicidal rating IPOHE ([19]; rate 0.125 kg/ha): 9.0 | Preemergence herbicidal rating IPOHE ([19]; rate 0.25 kg/ha): 9.0 | Preemergence herbicidal rating ABUTH ([20]; rate 0.125 kg/ha): 9.0 | Preemergence herbicidal rating ABUTH ([20]; rate 0.25 kg/ha): 9.0 | Preemergence herbicidal rating CHEAL ([21]; rate 0.125 kg/ha): 8.0 | Preemergence herbicidal rating CHEAL ([21]; rate 0.25 kg/ha): 9.0 | Preemergence herbicidal rating TRZAW ([22]; rate 0.125 kg/ha): 0.0 | Preemergence herbicidal rating TRZAW ([22]; rate 0.25 kg/ha): 1.0 | Preemergence herbicidal rating SETVI ([23]; rate 0.125 kg/ha): 3.0 | Preemergence herbicidal rating SETVI ([23]; rate 0.25 kg/ha): 5.0
